Measurements taken from patent US9717803B2, “Enzymatic conjugation of polypeptides” (Innate Pharma, priority 2011, dated 2017).
Entries after “also recorded” stand apart in the source; their conditions may differ. Like-named read-outs stand apart in the source and are kept apart here.

Legend:
[1] = target: T1, bacterial transglutaminase (BTG) (Streptomyces mobaraensis, UniProt P81453); type: biochemical; details: for BTG coupling, result in words: chADC1 N297S and chSGN35 N297S, 18.5 h
T1 construct: purchased Zedira, Darmstadt, Germany
T1 sequence (P81453 77-407): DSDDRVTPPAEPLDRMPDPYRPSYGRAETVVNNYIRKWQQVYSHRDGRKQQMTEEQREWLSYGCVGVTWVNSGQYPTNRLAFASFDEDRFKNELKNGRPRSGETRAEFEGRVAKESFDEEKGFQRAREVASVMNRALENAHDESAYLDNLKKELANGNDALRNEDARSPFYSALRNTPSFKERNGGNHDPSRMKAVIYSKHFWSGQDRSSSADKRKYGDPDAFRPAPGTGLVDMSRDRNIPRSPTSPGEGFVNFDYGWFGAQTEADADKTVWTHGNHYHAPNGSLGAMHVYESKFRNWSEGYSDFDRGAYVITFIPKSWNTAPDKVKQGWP

[2] = cited from earlier work
[3] = Solubility in water / aqueous buffer; type: physicochemical; details: aqueous buffer containing a maximum of 10% DMSO
[4] = chADC1 N297S, 80 eq ligand, 6 U/ml BTG, 1 mg/ml mAb, 37° C.
[5] = PNGaseF-deglycosylated chADC1, 6 U/mL BTG (optimized: 80 eq ligand, 1 mg/ml mAb, 37° C.)
[6] = PNGaseF-deglycosylated chADC1, 80 eq ligand, 6 U/ml BTG, 1 mg/ml mAb, 37° C.
[7] = PNGaseF-deglycosylated chADC1, standard conditions, 1 U/mL BTG
[8] = PNGaseF-deglycosylated chCE7, 80 eq ligand, 6 U/ml BTG, 1 mg/ml mAb, 37° C.
[9] = chADC1 N297Q (two acceptor glutamines per heavy chain), 80 eq ligand, 6 U/ml BTG, 1 mg/ml mAb, 37° C.

[N-]=[N+]=NCCOCCOCCOCCOCCN [Azide-PEG4-NH2, reference compound]
BTG coupling to two glutamines per heavy chain, result in words ([1]; chADC1 N297Q, 80 eq ligand, 6 U/ml BTG, 1 mg/ml mAb, 37° C.): complete coupling to two glutamines on all heavy chains | BTG coupling to heavy chain, result in words [1, 4]: quantitative

NCCCCCNC(=O)CSC1CC(=O)N(CCNC(=O)CN2CCN(CC(=O)O)CCN(CC(=O)O)CCN(CC(=O)O)CC2)C1=O (stereo not shown) [C2-DOTA, 2,2′,2″-(10-(2-((2-(3-((2-((5-aminopentyl)amino)-2-oxoethyl)thio)-2,5-dioxopyrrolidin-1-yl)ethyl)-amino)-2-oxoethyl)-1,4,7,10-tetraazacyclododecane-1,4,7-triyl)triacetic acid]
BTG coupling to heavy chain, result in words [1, 5]: minor peak modified chADC1 heavy chain | heavy chain with one linker coupled (LC-MS peak) [1, 6]: 30% | unmodified heavy chain (LC-MS peak) [1, 6]: 70% | BTG coupling to heavy chain, result in words [1, 7]: only unmodified chADC1 heavy chain | BTG coupling to heavy chain, result in words [1, 4]: quantitative coupling could not be accomplished

NCCCCCNC(=O)CCCCCSC1CC(=O)N(CCNC(=O)CN2CCN(CC(=O)O)CCN(CC(=O)O)CCN(CC(=O)O)CC2)C1=O (stereo not shown) [C6-DOTA, 2,2′,2″-(10-(2-((2-(3-((6-((5-aminopentyl)amino)-6-oxohexyl)thio)-2,5-dioxopyrrolidin-1-yl)ethyl)-amino)-2-oxoethyl)-1,4,7,10-tetraazacyclododecane-1,4,7-triyl)triacetic acid]
unmodified heavy chain (LC-MS peak) [1, 6]: 30% | BTG coupling to heavy chain, result in words [1, 4]: near quantitative coupling

CC[C@@]1(O)C(=O)OCc2c1cc1n(c2=O)Cc2cc3ccccc3nc2-1 [CPT, camptothecin]
solubility in water [2]: about 2.5 μg/ml

CC(=O)O[C@H]1C(=O)[C@@]2(C)[C@H]([C@H](OC(=O)c3ccccc3)[C@]3(O)C[C@H](OC(=O)[C@H](O)[C@@H](NC(=O)c4ccccc4)c4ccccc4)C(C)=C1C3(C)C)[C@]1(OC(C)=O)CO[C@@H]1C[C@@H]2O [PTX, paclitaxel]
solubility in water [2]: less than 1 μg/ml

NCCCCCNC(=O)c1ccc(-c2c3ccc(=O)cc-3oc3cc(O)ccc23)c(C(=O)O)c1 [cadaverin-fluorescein linker, reference compound]
BTG coupling to heavy chain, result in words [1, 5]: coupling could not be achieved; also recorded: Only partial modification

CN(C)c1cccc2c(S(=O)(=O)NCCCCCN)cccc12 [dansyl-cadaverin, reference compound]
BTG coupling to heavy chain, result in words [1, 5]: modification of all heavy chains | BTG coupling to heavy chain, result in words [1, 7]: did not go to completion | solubility in aqueous buffer, in words [3]: limited solubility

biotin-cadaverin [reference compound]
BTG coupling to heavy chain, result in words [1, 5]: modification of all heavy chains | BTG coupling to heavy chain, result in words [1, 7]: did not go to completion

maleimide-valine-citrullin-PAB-MMAF+6C Thiol Linker [MMAF linker]
heavy chain with one linker coupled (LC-MS peak) [1, 6]: 30% | unmodified heavy chain (LC-MS peak) [1, 6]: 70% | heavy chain with one linker coupled (LC-MS peak) [1, 8]: 19% | unmodified heavy chain (LC-MS peak) [1, 8]: 81% | BTG coupling with prolonged incubation, result in words ([1]; PNGaseF-deglycosylated mAb, 160 eq substrate, 6 U/mL BTGase, 40 h or 110 h, 37° C.): does not push the reaction to completion | heavy chain with one MMAF linker (LC-MS peak) [1, 9]: 75% | heavy chain with two MMAF linkers (LC-MS peak) [1, 9]: 25% | BTG coupling, result in words ([1]; 40 eq linker, 4 U/mL or 2 U/mL BTG, 37° C.): quantitatively functionalized | BTG coupling, result in words ([1]; 80 eq linker, 4 U/ml or 2 U/ml BTG, 37° C.): complete functionalization | BTG coupling, result in words ([1]; below 40 eq linker, 4 U/mL or 2 U/mL BTG, 37° C.): no longer quantitative | heavy chain with one linker coupled (LC-MS peak) [1, 4]: greater than 90%
